# Reference: PubChem BioAssay (NCI)
#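 Each compound was tested at five concentrations against cells in 96-well plates for 48 hours. GI50 marks 50% less growth. TGI: concentration producing complete growth inhibition.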
# What was measured:
# Experiment in all cases: inhibition of tumour cell growth, NCI panel, 48 h
# [1] = test system: 786-0 renal
# [2] = test system: A498 renal
# [3] = test system: A549 NSCLC
# [4] = test system: ACHN renal
# [5] = test system: BT-549 breast
# [6] = test system: CAKI-1 renal
# [7] = test system: CCRF-CEM leukemia
# [8] = test system: COLO 205 colon
# [9] = test system: DU-145 prostate
# [10] = test system: EKVX NSCLC
# [11] = test system: HCC-2998 colon
# [12] = test system: HCT-116 colon
# [13] = test system: HCT-15 colon
# [14] = test system: HL-60(TB) leukemia
# [15] = test system: HOP-62 NSCLC
# [16] = test system: HOP-92 NSCLC
# [17] = test system: HS 578T breast
# [18] = test system: HT29 colon
# [19] = test system: IGROV1 ovarian
# [20] = test system: K-562 leukemia
# [21] = test system: KM12 colon
# [22] = test system: LOX IMVI melanoma
# [23] = test system: M14 melanoma
# [24] = test system: MALME-3M melanoma
# [25] = test system: MCF7 breast
# [26] = test system: MDA-MB-231 breast
# [27] = test system: MDA-MB-435
# [28] = test system: MOLT-4 leukemia
# [29] = test system: NCI-H226 lung
# [30] = test system: NCI-H23 lung
# [31] = test system: NCI-H460 lung
# [32] = test system: NCI-H522 lung
# [33] = test system: NCI/ADR-RES ovarian
# [34] = test system: OVCAR-4 ovarian
# [35] = test system: OVCAR-5 ovarian
# [36] = test system: OVCAR-8 ovarian
# [37] = test system: PC-3 prostate
# [38] = test system: RPMI-8226 leukemia
# [39] = test system: RXF 393 renal
# [40] = test system: SF-268 CNS
# [41] = test system: SF-295 CNS
# [42] = test system: SF-539 CNS
# [43] = test system: SK-MEL-2 melanoma
# [44] = test system: SK-MEL-28 melanoma
# [45] = test system: SK-MEL-5 melanoma
# [46] = test system: SK-OV-3 ovarian
# [47] = test system: SN12C renal
# [48] = test system: SNB-19 CNS
# [49] = test system: SNB-75 CNS
# [50] = test system: SR leukemia
# [51] = test system: SW-620 colon
# [52] = test system: T-47D breast
# [53] = test system: TK-10 renal
# [54] = test system: U251 CNS
# [55] = test system: UACC-257 melanoma
# [56] = test system: UACC-62 melanoma
# [57] = test system: UO-31 renal
smiles,measurement,setting,value
O=C(NNc1nc2cc(F)c(F)cc2n2c(CN3CC4CNCC4C3)ccc12)c1ncccn1 (stereo not drawn),GI50,[1],2.18 µM
same,TGI,[1],9.02 µM
same,GI50,[2],2.36 µM
same,TGI,[2],8.64 µM
same,GI50,[3],2.82 µM
same,TGI,[3],13.2 µM
same,GI50,[4],0.512 µM
same,TGI,[4],10.7 µM
same,GI50,[5],4.47 µM
same,TGI,[5],18.7 µM
same,GI50,[6],0.756 µM
same,TGI,[6],11.9 µM
same,GI50,[7],1.86 µM
same,TGI,[7],> 100 µM
same,GI50,[8],2.81 µM
same,TGI,[8],11.8 µM
same,GI50,[9],2.31 µM
same,TGI,[9],16.1 µM
same,GI50,[10],1.79 µM
same,TGI,[10],17.7 µM
same,GI50,[11],4.14 µM
same,TGI,[11],19.3 µM
same,GI50,[12],1.6 µM
same,TGI,[12],14.5 µM
same,GI50,[13],0.526 µM
same,TGI,[13],25.1 µM
same,GI50,[14],2.62 µM
same,TGI,[14],10.7 µM
same,GI50,[15],1.04 µM
same,TGI,[15],11.2 µM
same,GI50,[16],6.46 µM
same,TGI,[16],28.3 µM
same,GI50,[17],5.98 µM
same,TGI,[17],37 µM
same,GI50,[18],3.76 µM
same,TGI,[18],32.2 µM
same,GI50,[19],1.85 µM
same,TGI,[19],12.3 µM
same,GI50,[20],2.4 µM
same,TGI,[20],74.5 µM
same,GI50,[21],3.18 µM
same,TGI,[21],22.8 µM
same,GI50,[22],1.06 µM
same,TGI,[22],5.21 µM
same,GI50,[23],1.14 µM
same,TGI,[23],9.42 µM
same,GI50,[24],2.53 µM
same,GI50,[25],3.07 µM
same,TGI,[25],14 µM
same,GI50,[26],3.64 µM
same,TGI,[26],21 µM
same,GI50,[27],3.85 µM
same,TGI,[27],16.4 µM
same,GI50,[28],3.14 µM
same,TGI,[28],> 100 µM
same,GI50,[29],2.77 µM
same,TGI,[29],18.1 µM
same,GI50,[30],3.48 µM
same,TGI,[30],16.2 µM
same,GI50,[31],0.567 µM
same,TGI,[31],6.99 µM
same,GI50,[32],4.37 µM
same,TGI,[32],21.2 µM
same,GI50,[33],5.29 µM
same,TGI,[33],22.7 µM
same,GI50,[34],2.8 µM
same,TGI,[34],17.9 µM
same,GI50,[35],5.08 µM
same,TGI,[35],25.4 µM
same,GI50,[36],2.18 µM
same,TGI,[36],12.8 µM
same,GI50,[37],3.22 µM
same,TGI,[37],39.6 µM
same,GI50,[38],3.69 µM
same,TGI,[38],55.7 µM
same,GI50,[39],2 µM
same,TGI,[39],9.33 µM
same,GI50,[40],1.87 µM
same,TGI,[40],14.8 µM
same,GI50,[41],0.847 µM
same,TGI,[41],12.5 µM
same,GI50,[42],2.76 µM
same,TGI,[42],9.5 µM
same,GI50,[43],4.23 µM
same,TGI,[43],20.7 µM
same,GI50,[44],2.83 µM
same,TGI,[44],14.8 µM
same,GI50,[45],1.65 µM
same,TGI,[45],4.4 µM
same,GI50,[46],1.96 µM
same,TGI,[46],14.8 µM
same,GI50,[47],3.06 µM
same,TGI,[47],13.8 µM
same,GI50,[48],3.53 µM
same,TGI,[48],29.1 µM
same,GI50,[49],2.19 µM
same,TGI,[49],13.6 µM
same,GI50,[50],1.53 µM
same,TGI,[50],> 100 µM
same,GI50,[51],2.48 µM
same,TGI,[51],16.1 µM
same,GI50,[52],3.08 µM
same,TGI,[52],14.2 µM
same,GI50,[53],7.89 µM
same,TGI,[53],29.7 µM
same,GI50,[54],1.9 µM
same,TGI,[54],14.6 µM
same,GI50,[55],2.8 µM
same,TGI,[55],9.36 µM
same,GI50,[56],2.57 µM
same,TGI,[56],11.6 µM
same,GI50,[57],0.448 µM
same,TGI,[57],10.1 µM
